Laboratory results published in patent publication US20040191287A1, “Fumigation process for stored food grains” (priority 2003, published 2004).
Like-named read-outs stand apart in the source and are kept apart here.

Tests used:
rat [1] = details: 1 hr; cited from earlier work
[2] = cited from earlier work
[3] = system: T. castaneum mixed-age cultures; test: Fumigation in 125 litre plastic drums with 100 kg wheat, with/without perforated tubing (Example 6); type: in vivo, Tribolium castaneum; details: without perforated tubing, 200 mg/liter, 26 ± 2° C., 125 liter drum; for mortality at 200 µg/mL: Tribolium castaneum, 72 h, read-out: % mortality based on survivors in untreated controls; for Insect Survivors: 72 hours
Experimental: In another set of experiments, fumigations were carried out in the plastic drums with 100 kg of wheat under similar conditions mentioned above except that there was no perforated tubing inserted into the grain and the total dose of allyl acetate (27 ml of liquid) was dispensed at one location, that is, on the top layer of the grain. In both sets of experiments, there were 3 replicates for control and fumigated batches.
Insect mortality in fumigated batches was determined by taking into consideration of survivors in respective controls as 100%.

Cryptolestes sp. = test: LD 50 / LD 99 of allyl acetate to adults, probit analysis (Example 2); type: in vivo; details: 24-hour exposure at 26 ± 2° C.
Experimental: (§1) Assays with allyl acetate against the adults of four species of stored grain insects namely S. oryzae, R. dominica, T. castaneum and Cryptolestes sp. were carried out to determine LD 50 and LD 99 doses. […] Cryptolestes sp. was reared on wheat feed. […] The insects were exposed to different doses of allyl acetate for 24 hour in 0.85-liter desiccators to yield 20-100% mortality. There were 6 replicates for each dose along with equal number of untreated control. […] Mortality of treated insects was assessed at the end of 14 days and it was corrected for natural control mortality. The data for the individual species were subjected to probit analysis following the method of Finney (1971) to arrive at LD 50 and LD 99 values.

Sitophilus oryzae = test: as above; type: in vivo; details: S. oryzae adults, 24-hour exposure at 26 ± 2° C.
Experimental: as §1

Rhyzopertha dominica = test: as above; type: in vivo; details: R. dominica adults, 24-hour exposure at 26 ± 2° C.
Experimental: as §1

Tribolium castaneum = test: as above; type: in vivo; details: T. castaneum adults, 24-hour exposure at 26 ± 2° C.
Experimental: as §1

rat [4] = details: cited from earlier work
[5] = system: R. dominica mixed-age cultures; details: 72 hours at 26±2° C., 19.5 liter tin container with 12 kg wheat
Text: Fumigation experiments with allyl acetate have been conducted in 19.5 litre capacity tin containers with mixed- age cultures of R. dominica, S. oryzae and T. castaneum as the test insects.
Mixed-age cultures of S. oryzae and R. dominica were obtained by allowing 300 adults of the individual species to breed in about 1 kg of wheat in a 2-liter glass jar. To obtain mixed- age culture of T. castaneum about 300 adults were released into 1 kg of whole-wheat flour plus 5% dried yeast in a 2-litre glass jar. The insect culture jars were kept under the rearing temperature conditions i.e., 25±1° C. for S. oryzae and T. castaneum and 30±1° C. for R. dominica.
The infested grain/flour after an incubation period of 7 weeks was used for the experiment. The cultures were weighed into 50 gm aliquots in 21 cm×14 cm size cloth bags. One set of three test insect bags comprising R. dominica, S. oryzae and T. castaneum were kept at the bottom of the container before filling the grain.
Another set of three-test insect bags was kept on the top layer of grains. The grain-filled containers were, then, fumigated with allyl acetate for 72 hours at 26±2° C. There were 6 doses ranging from 100 to 800 mg/litre with 3 replicates/dosage along with untreated controls. Required quantity of allyl acetate was measured in 10 and 25 ml measuring cylinder and quickly poured on to 5 gm of absorbent cotton wool kept over the grain layer in the tin container.
Immediately after dosing, the container was closed with the lid tightly and sealed along the rim with adhesive tape. At the end of 72 hour, the lid was removed to aerate the commodity and the test insect bags were retrieved and the contents transferred to 300 ml capacity glass bottles.
Insect survivors in the samples were recorded at weekly intervals for 8 weeks. Mortality in fumigated batches was calculated based on emergence/survivors in controls.

[6] = system: R. dominica mixed-age cultures; test: Mixed-age cultures exposed to allyl acetate in desiccators (Example 3); type: in vivo; details: Rhyzopertha dominica, read-out: Mortality (%) (Mean ± SD); for mortality at 25 µg/mL: 25 mg/liter; for mortality at 50 µg/mL: 50 mg/liter; for mortality at 100 µg/mL: 100 mg/liter; for mortality at 150 µg/mL: 150 mg/liter
Experimental: (§2) The grain/ flour containing mixed- age culture of the insect was weighted into 15 cm diameter paper plates in 50 gm aliquots and kept in 0.85 litre desiccators. A 9 cm size Whatman No.1 filter circle was placed in each desiccator to act as evaporating surface for allyl acetate when injected. The insects were exposed to 4 doses of allyl acetate i.e., 25, 50, 100 and 150 mg/liter. Allyl acetate was drawn from the bottle using 100 and 250 micro liter liquid syringes and injected into the desiccators, so that the liquid falls on the filter circle inside the desiccator. There were three replicates each for each dose and for each exposure period. […] Insects emerged from wheat (S. oryzae and R. dominica) or survived in wheat flour (T. castaneum) samples were checked at weekly intervals for 8 weeks. Similarly, counts were made in untreated control batches. Mortality in treated batches was determined by taking into account of survival/emergence in controls as 100%. […] For example, allyl acetate at 25 mg/litre with 48-hour exposure caused 99.8% kill in R. dominica whereas, 85.1 and 86.5% mortality was recorded, respectively, in S. oryzae and T. castaneum.

[7] = system: T. castaneum mixed-age cultures; test: as above; type: in vivo; details: Tribolium castaneum, read-out: Mortality (%) (Mean ± SD); for mortality at 25 µg/mL: 25 mg/liter; for mortality at 50 µg/mL: 50 mg/liter; for mortality at 100 µg/mL: 100 mg/liter; for mortality at 150 µg/mL: 150 mg/liter
Experimental: as §2

[8] = system: S. oryzae mixed-age cultures; test: as above; type: in vivo; details: Sitophilus oryzae, read-out: Mortality (%) (Mean ± SD); for mortality at 25 µg/mL: 25 mg/liter; for mortality at 50 µg/mL: 50 mg/liter; for mortality at 100 µg/mL: 100 mg/liter; for mortality at 150 µg/mL: 150 mg/liter
Experimental: as §2

[9] = cited from earlier work; remark: listed apart in the source

For C=CCOC(C)=O [allyl acetate], the “LC 50 rat inhalation” value (rat [1]) is listed as “LC 50 rat inhalation 1000 ppm/1 hr”, the “Vapour pressure at 27° C. (mm Hg)” value ([2]; 27° C.) is listed as 6 mm Hg and the Solubility in water [2] is listed as “Insoluble”. The mortality at 200 µg/mL ([3]; bottom layer) was 0%, the mortality at 200 µg/mL ([3]; middle layer) was 100% and the mortality at 200 µg/mL ([3]; top layer) was 99.4%. The “Insect Survivors” value ([3]; test insect bag at bottom layer) was 39.00, the “Insect Survivors” value ([3]; test insect bag at middle layer) was 0 and the “Insect Survivors” value ([3]; test insect bag at top layer) was 0.33. For the same compound, the “LD 99 (mg/Liter)” value (Cryptolestes sp.) was 5.44 (4.29; 15.6) mg/Liter, the “LD 50 (mg/Liter)” value (Sitophilus oryzae) was 4.08 (3.70; 4.42) mg/Liter and the “LD 99 (mg/Liter)” value (Sitophilus oryzae) was 12.81 (10.90; 16.15) mg/Liter. For the same compound, the “LD 50 (mg/Liter)” value (Rhyzopertha dominica) was 1.69 (1.30; 2.02) mg/Liter, the “LD 99 (mg/Liter)” value (Rhyzopertha dominica) was 7.56 (5.81; 11.67) mg/Liter and the “LD 50 (mg/Liter)” value (Tribolium castaneum) was 6.14 (5.33; 6.80) mg/Liter. The “LD 99 (mg/Liter)” value (Tribolium castaneum) was 11.42 (9.85; 14.92) mg/Liter, the “LD 50 rat oral” value (rat [4]) was “LD 50 rat oral 130 mg/kg” and the “% mortality based on survivors in controls” value (“% mortality based” for short) ([5]; 100 mg/liter) was “(100) %”. For the same compound, the “No. of survivors from 50 g lots of mixed-age cultures following treatment” value (from here on “No. of survivors”) ([5]; 100 mg/liter) was 0, the “% mortality based” value ([5]; 150 mg/liter) was “(100) %” and the “No. of survivors” value ([5]; 150 mg/liter) was 0. The “% mortality based” value ([5]; 200 mg/liter) was “(100) %”, the “No. of survivors” value ([5]; 200 mg/liter) was 0 and the “% mortality based” value ([5]; 400 mg/liter) was “(100) %”. For the same compound, the “No. of survivors” value ([5]; 400 mg/liter) was 0, the “% mortality based” value ([5]; 600 mg/liter) was “(100) %” and the “No. of survivors” value ([5]; 600 mg/liter) was 0. For the same compound, the “% mortality based” value ([5]; 800 mg/liter) was “(100) %”, the “No. of survivors” value ([5]; 800 mg/liter) was 0 and the mortality at 25 µg/mL ([6]; 24 hours exposure) was 99.8 ± 0.3%. The mortality at 50 µg/mL ([6]; 24 hours exposure) was 100%, the mortality at 100 µg/mL ([6]; 24 hours exposure) was 100% and the mortality at 150 µg/mL ([6]; 24 hours exposure) was 100%. It also gave a mortality at 25 µg/mL ([6]; 48 hours exposure) of 99.8%, a mortality at 50 µg/mL ([6]; 48 hours exposure) of 99.8 ± 0.4% and a mortality at 100 µg/mL ([6]; 48 hours exposure) of 100%. The mortality at 150 µg/mL ([6]; 48 hours exposure) was 100%, the mortality at 25 µg/mL ([6]; 120 hours exposure) was 99.8 ± 0.5% and the mortality at 50 µg/mL ([6]; 120 hours exposure) was 100%. The mortality at 100 µg/mL ([6]; 120 hours exposure) was 100%, the mortality at 150 µg/mL ([6]; 120 hours exposure) was 100% and the mortality at 25 µg/mL ([7]; 24 hours exposure) was 0%. It also gave a mortality at 50 µg/mL ([7]; 24 hours exposure) of 82.6 ± 17.8%, a mortality at 100 µg/mL ([7]; 24 hours exposure) of 98.4 ± 3.3% and a mortality at 150 µg/mL ([7]; 24 hours exposure) of 99.2 ± 1.7%. It also gave a mortality at 25 µg/mL ([7]; 48 hours exposure) of 86.5%, a mortality at 50 µg/mL ([7]; 48 hours exposure) of 100% and a mortality at 100 µg/mL ([7]; 48 hours exposure) of 100%. For the same compound, the mortality at 150 µg/mL ([7]; 48 hours exposure) was 100%, the mortality at 25 µg/mL ([7]; 120 hours exposure) was 51.4 ± 11.6% and the mortality at 50 µg/mL ([7]; 120 hours exposure) was 73.4 ± 17.7%. It also gave a mortality at 100 µg/mL ([7]; 120 hours exposure) of 97.3 ± 3.2%, a mortality at 150 µg/mL ([7]; 120 hours exposure) of 100% and a mortality at 25 µg/mL ([8]; 24 hours exposure) of 87.9 ± 4.1%. For the same compound, the mortality at 50 µg/mL ([8]; 24 hours exposure) was 98 ± 1.5%, the mortality at 100 µg/mL ([8]; 24 hours exposure) was 100% and the mortality at 150 µg/mL ([8]; 24 hours exposure) was 100%. For the same compound, the mortality at 25 µg/mL ([8]; 48 hours exposure) was 85.1%, the mortality at 50 µg/mL ([8]; 48 hours exposure) was 98.9 ± 1.3% and the mortality at 100 µg/mL ([8]; 48 hours exposure) was 100%. The mortality at 150 µg/mL ([8]; 48 hours exposure) was 100%, the mortality at 25 µg/mL ([8]; 120 hours exposure) was 98.8 ± 1.8% and the mortality at 50 µg/mL ([8]; 120 hours exposure) was 100%. The mortality at 100 µg/mL ([8]; 120 hours exposure) was 100%, the mortality at 150 µg/mL ([8]; 120 hours exposure) was 100% and the “Mammalian Toxicity (irritation)” value ([9]; eyes, respiratory system and skin) was “Irritating to eyes, respiratory”. The “Mammalian Toxicity” value ([9]; routes of toxicity: inhalation, contact and ingestion) was “Toxic by inhalation,”.
